In PMC5161434 (EBioMedicine, 2016):
Blank lines part the entries; values can stand above or below the compound they belong to.

Experiments:
[1] = Host toxicity in tumor-bearing mice; format: in vivo, BALB/c nude mice; conditions: 25 mg/kg daily, end of experiment; for organ weights (liver, kidneys, spleen, lung): versus vehicle
[2] = tested on: A2780 cells; test: Western blotting of apoptosis, cell cycle and EMT proteins, A2780; format: cell-based, human; conditions: 24 h; for cleavage of caspase 3 and PARP: ARS4 1, 5, 10 μM, DHA or melphalan 10 μM
[3] = tested on: OVCAR3 cells; test: Western blotting of apoptosis, cell cycle and EMT proteins, OVCAR3; format: cell-based, human; conditions: 24 h; for cleavage of caspase 3 and PARP: ARS4 1, 5, 10 μM, DHA or melphalan 10 μM
[4] = tested on: OVCAR3; test: CCK-8 cell viability, OVCAR3 ovarian cancer cells; format: cell-based, human; conditions: for IC50: Homo sapiens, OVCAR-3, 48 h, read-out: IC50 (cell growth inhibition), OVCAR-3
[5] = tested on: A2780; test: CCK-8 cell viability, A2780 ovarian cancer cells; format: cell-based, human; conditions: for IC50: Homo sapiens, A2780, 48 h, read-out: IC50 (cell growth inhibition), A2780
[6] = tested on: A2780 cells; test: PI staining cell-cycle distribution, A2780; format: cell-based, human; conditions: 24 h
[7] = tested on: OVCAR3 cells; test: PI staining cell-cycle distribution, OVCAR3; format: cell-based, human; conditions: 24 h

Compound: N.N.O=C([O-])C1(C(=O)[O-])CCC1.[Pt+2] [Carboplatin]
- organ weights (liver, kidneys, spleen, lung) [1]: loss

- IC50 [4]: 5.65 µM
- IC50 [5]: 4.75 µM
Compound: C[C@H]1[C@@H](O)O[C@@H]2O[C@@]3(C)CC[C@H]4[C@H](C)CC[C@@H]1[C@@]24OO3 [Compound 1, Dihydroartemisinin]
- cleavage of caspase 3 and PARP [2]: less effect
- cleavage of caspase 3 and PARP [3]: less effect
- growth of cells after 12 h of exposure (CCK8) ([4]; OVCAR3, 12 h, data not shown): no apparent inhibition of growth
- growth of cells after 12 h of exposure (CCK8) ([5]; A2780, 12 h, data not shown): no apparent inhibition of growth
- effect on cell-cycle progression [6]: modest arrest in the G0/G1 phase
- effect on cell-cycle progression [7]: modest arrest in the G0/G1 phase

Compound: N[C@@H](Cc1ccc(N(CCCl)CCCl)cc1)C(=O)O [Compound 3, melphalan]
- EMT phenotype (E-cadherin, Vimentin, Snail, Slug expression) [2]: no obvious effect
- cleavage of caspase 3 and PARP [2]: less effect
- EMT phenotype (E-cadherin, Vimentin, Snail, Slug expression) [3]: no obvious effect
- cleavage of caspase 3 and PARP [3]: less effect
- IC50 [4]: 11.6 µM
- IC50 [5]: 23.2 µM
- histological findings (H&E; liver, kidneys, spleen, lung) [1]: substantial necrosis of liver and spleen parenchymal cells
- organ weights (liver, kidneys, spleen, lung) [1]: Severe decreases in organ weight
- effect on cell-cycle progression [6]: arrested cells in the S phase
- effect on cell-cycle progression [7]: arrested cells in the S phase
